From patent US9309225B2, “N-((1-benzyl-1H-1,2,3-triazol-4-yl)methyl)arylamide compounds as potential anticancer agents and a process for the preparation thereof” (COUNCIL OF SCIENTIFIC & INDUSTRIAL RESEARCH, priority 2013, dated 2016)

Columns and labels:
HL-60(TB) = experiment: NCI sixty human tumor cell line screen, Leukemia panel; assay type: cell-based; details: NCI protocol
Procedure: (§1) The in vitro anticancer activity studies for these N-((1-benzyl-1H-1,2,3-triazol-4-yl)methyl) arylamide analogues were carried out at the National Cancer Institute, USA.
(§2) The N-((1-benzyl-1H-1,2,3-triazol-4-yl)methyl)arylamide analogues have been tested at NCI, USA, against sixty human tumor cell lines derived from nine cancer types (leukemia, non-small cell lung cancer, colon cancer, CNS cancer, melanoma cancer, ovarian cancer, renal cancer, prostate cancer and breast cancer). For these compounds results are expressed as growth inhibition (GI50) values as per NCI protocol.

A549/ATCC = experiment: NCI sixty human tumor cell line screen, Non-small-cell-lung panel; assay type: cell-based; details: NCI protocol
Procedure: as §1, §2

EKVX = experiment: as above; assay type: cell-based; details: NCI protocol
Procedure: as §1, §2

HOP-62 = experiment: as above; assay type: cell-based; details: HOP-62, Non-small-cell-lung, NCI protocol
Procedure: as §1, §2

NCI-H226 = experiment: as above; assay type: cell-based; details: NCI protocol
Procedure: as §1, §2

NCI-H460 = experiment: as above; assay type: cell-based; details: NCI protocol
Procedure: as §1, §2

NCI-H522 = experiment: as above; assay type: cell-based; details: NCI protocol
Procedure: as §1, §2

COLO 205 = experiment: NCI sixty human tumor cell line screen, Colon panel; assay type: cell-based; details: COLO 205, Colon, NCI protocol
Procedure: as §1, §2

HCT-116 = experiment: as above; assay type: cell-based; details: HCT-116, Colon, NCI protocol
Procedure: as §1, §2

HT29 = experiment: as above; assay type: cell-based; details: HT-29, NCI protocol
Procedure: as §1, §2

KM12 = experiment: as above; assay type: cell-based; details: NCI protocol
Procedure: as §1, §2

SW-620 = experiment: as above; assay type: cell-based; details: SW-620, Colon, NCI protocol
Procedure: as §1, §2

SF-268 = experiment: NCI sixty human tumor cell line screen, CNS panel; assay type: cell-based; details: SF-268, CNS, NCI protocol
Procedure: as §1, §2

SF-295 = experiment: NCI sixty human tumor cell line screen, CNS panel; assay type: cell-based; details: SF-295, CNS, NCI protocol
Procedure: as §1, §2

SF-539 = experiment: NCI sixty human tumor cell line screen, CNS panel; assay type: cell-based; details: SF-539, CNS, NCI protocol
Procedure: as §1, §2

SNB-19 = experiment: NCI sixty human tumor cell line screen, CNS panel; assay type: cell-based; details: SNB-19, CNS, NCI protocol
Procedure: as §1, §2

SNB-75 = experiment: NCI sixty human tumor cell line screen, CNS panel; assay type: cell-based; details: SNB-75, CNS, NCI protocol
Procedure: as §1, §2

U251 = experiment: NCI sixty human tumor cell line screen, CNS panel; assay type: cell-based; details: U-251, NCI protocol
Procedure: as §1, §2

LOX IMVI = experiment: NCI sixty human tumor cell line screen, Melanoma panel; assay type: cell-based; details: NCI protocol
Procedure: as §1, §2

M14 = experiment: as above; assay type: cell-based; details: NCI protocol
Procedure: as §1, §2

MDA-MB-435 = experiment: as above; assay type: cell-based; details: MDA-MB-435, Melanoma, NCI protocol
Procedure: as §1, §2

SK-MEL-28 = experiment: as above; assay type: cell-based; details: SK-MEL-28, Melanoma, NCI protocol
Procedure: as §1, §2

SK-MEL-2 = experiment: as above; assay type: cell-based; details: SK-MEL-2, Melanoma, NCI protocol
Procedure: as §1, §2

SK-MEL-5 = experiment: as above; assay type: cell-based; details: SK-MEL-5, Melanoma, NCI protocol
Procedure: as §1, §2

UACC-62 = experiment: as above; assay type: cell-based; details: UACC-62, Melanoma, NCI protocol
Procedure: as §1, §2

NCI/ADR-RES = experiment: NCI sixty human tumor cell line screen, Ovarian panel; assay type: cell-based; details: NCI protocol
Procedure: as §1, §2

OVCAR-3 = experiment: as above; assay type: cell-based; details: OVCAR-3, Ovarian, NCI protocol
Procedure: as §1, §2

OVCAR-4 = experiment: as above; assay type: cell-based; details: OVCAR-4, Ovarian, NCI protocol
Procedure: as §1, §2

OVCAR-8 = experiment: as above; assay type: cell-based; details: OVCAR-8, Ovarian, NCI protocol
Procedure: as §1, §2

SK-OV-3 = experiment: as above; assay type: cell-based; details: SK-OV-3, Ovarian, NCI protocol
Procedure: as §1, §2

A498 = experiment: NCI sixty human tumor cell line screen, Renal panel; assay type: cell-based; details: NCI protocol
Procedure: as §1, §2

ACHN = experiment: as above; assay type: cell-based; details: NCI protocol
Procedure: as §1, §2

CAKI-1 = experiment: as above; assay type: cell-based; details: CAKI-1, Renal, NCI protocol
Procedure: as §1, §2

RXF 393 = experiment: as above; assay type: cell-based; details: RXF 393, Renal, NCI protocol
Procedure: as §1, §2

SN12C = experiment: as above; assay type: cell-based; details: NCI protocol
Procedure: as §1, §2

TK-10 = experiment: as above; assay type: cell-based; details: TK-10, Renal, NCI protocol
Procedure: as §1, §2

UO-31 = experiment: as above; assay type: cell-based; details: UO-31, Renal, NCI protocol
Procedure: as §1, §2

DU-145 = experiment: NCI sixty human tumor cell line screen, Prostate panel; assay type: cell-based; details: DU-145, Prostate, NCI protocol
Procedure: as §1, §2

PC-3 = experiment: as above; assay type: cell-based; details: PC-3, Prostate, NCI protocol
Procedure: as §1, §2

BT-549 = experiment: NCI sixty human tumor cell line screen, Breast panel; assay type: cell-based; details: BT-549, Breast, NCI protocol
Procedure: as §1, §2

MDA-MB-31/ATCC = experiment: as above; assay type: cell-based; details: NCI protocol
Procedure: as §1, §2

MDA-MB-468 = experiment: as above; assay type: cell-based; details: MDA-MB-468, Breast, NCI protocol
Procedure: as §1, §2

T-47D = experiment: as above; assay type: cell-based; details: T47D, NCI protocol
Procedure: as §1, §2

Q: For O=C(NCc1cn(Cc2cccc(Oc3ccccc3)c2)nn1)c1cccnc1Nc1ccccc1 [Compound 1a, N-((1-(3-Phenoxybenzyl)-1H-1,2,3-triazol-4-yl)methyl)-2-(phenylamino)nicotinamide], which GI50 (HL-60(TB)) is on record?
A: 3.74 µM

Q: And the GI50 (A549/ATCC)?
A: 4.81 µM

Q: What about the GI50 (EKVX) of the same compound?
A: 5.18 µM

Q: What about the GI50 (HOP-62) of the same compound?
A: 5.58 µM

Q: And the GI50 (NCI-H226)?
A: 3.24 µM

Q: What about the GI50 (NCI-H460) of the same compound?
A: 2.85 µM

Q: What about the GI50 (NCI-H522) of the same compound?
A: 2.11 µM

Q: What about the GI50 (COLO 205) of the same compound?
A: 2.79 µM

Q: And the GI50 (HCT-116)?
A: 3.4 µM

Q: And the GI50 (HT29)?
A: 3.65 µM

Q: And the GI50 (KM12)?
A: 3.63 µM

Q: What about the GI50 (SW-620) of the same compound?
A: 3.97 µM

Q: What about the GI50 (SF-268) of the same compound?
A: 3.22 µM

Q: And the GI50 (SF-295)?
A: 3.69 µM

Q: And the GI50 (SF-539)?
A: 3.1 µM

Q: What about the GI50 (SNB-19) of the same compound?
A: 3.27 µM

Q: What about the GI50 (SNB-75) of the same compound?
A: 1.94 µM

Q: What about the GI50 (U251) of the same compound?
A: 3.61 µM

Q: What about the GI50 (LOX IMVI) of the same compound?
A: 4.54 µM

Q: And the GI50 (M14)?
A: 2.86 µM

Q: And the GI50 (MDA-MB-435)?
A: 2.65 µM

Q: And the GI50 (SK-MEL-28)?
A: 4.93 µM

Q: What about the GI50 (SK-MEL-2) of the same compound?
A: 6.05 µM

Q: What about the GI50 (SK-MEL-5) of the same compound?
A: 3.89 µM

Q: And the GI50 (UACC-62)?
A: 3.02 µM

Q: And the GI50 (NCI/ADR-RES)?
A: 14 µM

Q: What about the GI50 (OVCAR-3) of the same compound?
A: 17.7 µM

Q: What about the GI50 (OVCAR-4) of the same compound?
A: 23.4 µM

Q: And the GI50 (OVCAR-8)?
A: 7.44 µM

Q: What about the GI50 (SK-OV-3) of the same compound?
A: 5.94 µM

Q: And the GI50 (A498)?
A: 13.7 µM

Q: And the GI50 (ACHN)?
A: 11.1 µM

Q: What about the GI50 (CAKI-1) of the same compound?
A: 64.2 µM

Q: And the GI50 (RXF 393)?
A: 5.69 µM

Q: And the GI50 (SN12C)?
A: 52.9 µM

Q: What about the GI50 (TK-10) of the same compound?
A: 24.5 µM

Q: What about the GI50 (UO-31) of the same compound?
A: 86.3 µM

Q: What about the GI50 (DU-145) of the same compound?
A: 8.58 µM

Q: What about the GI50 (PC-3) of the same compound?
A: 20.4 µM

Q: And the GI50 (BT-549)?
A: 45.5 µM

Q: What about the GI50 (MDA-MB-31/ATCC) of the same compound?
A: 14.5 µM

Q: What about the GI50 (MDA-MB-468) of the same compound?
A: 51.7 µM

Q: And the GI50 (T-47D)?
A: 21.4 µM

Q: What about the melting point of the same compound?
A: 124 to 126 °C

Q: With O=C(NCc1cn(Cc2cccc(Oc3ccccc3)c2)nn1)c1cccnc1Nc1ccc(F)cc1 [Compound 1b, 2-(4-Fluorophenylamino)-N-((1-(3-phenoxybenzyl)-1H-1,2,3-triazol4-yl)methyl)nicotinamide] as the compound, how does the GI50 (A549/ATCC) read?
A: 6.11 µM

Q: And the GI50 (EKVX)?
A: 25.3 µM

Q: And the GI50 (HOP-62)?
A: 60.2 µM

Q: What about the GI50 (NCI-H226) of the same compound?
A: 38.6 µM

Q: And the GI50 (NCI-H460)?
A: 5.25 µM

Q: And the GI50 (NCI-H522)?
A: 10.8 µM

Q: And the GI50 (COLO 205)?
A: 6.22 µM

Q: And the GI50 (HCT-116)?
A: 5.02 µM

Q: And the GI50 (HT29)?
A: 5.6 µM

Q: And the GI50 (KM12)?
A: 5.61 µM

Q: And the GI50 (SW-620)?
A: 6.58 µM

Q: And the GI50 (SF-268)?
A: 2.1 µM

Q: What about the GI50 (SF-295) of the same compound?
A: 5.66 µM

Q: What about the GI50 (SF-539) of the same compound?
A: 15.1 µM

Q: What about the GI50 (SNB-19) of the same compound?
A: 20.7 µM

Q: And the GI50 (SNB-75)?
A: 3.81 µM

Q: What about the GI50 (U251) of the same compound?
A: 7.12 µM

Q: What about the GI50 (LOX IMVI) of the same compound?
A: 61.3 µM

Q: And the GI50 (M14)?
A: 13.7 µM

Q: What about the GI50 (MDA-MB-435) of the same compound?
A: 2.79 µM

Q: And the GI50 (SK-MEL-28)?
A: 7.98 µM

Q: What about the GI50 (SK-MEL-2) of the same compound?
A: 34.2 µM

Q: What about the GI50 (SK-MEL-5) of the same compound?
A: 4.48 µM

Q: And the GI50 (UACC-62)?
A: 6.51 µM

Q: And the GI50 (NCI/ADR-RES)?
A: 2.12 µM

Q: What about the GI50 (OVCAR-3) of the same compound?
A: 2.98 µM

Q: And the GI50 (OVCAR-4)?
A: 5.19 µM

Q: What about the GI50 (OVCAR-8) of the same compound?
A: 3.72 µM

Q: And the GI50 (SK-OV-3)?
A: 3.11 µM

Q: And the GI50 (A498)?
A: 2.35 µM

Q: What about the GI50 (ACHN) of the same compound?
A: 4.79 µM

Q: And the GI50 (CAKI-1)?
A: 3.41 µM

Q: What about the GI50 (RXF 393) of the same compound?
A: 2.59 µM

Q: And the GI50 (SN12C)?
A: 4.75 µM

Q: What about the GI50 (TK-10) of the same compound?
A: 4.59 µM

Q: And the GI50 (UO-31)?
A: 3 µM

Q: And the GI50 (DU-145)?
A: 3.76 µM

Q: And the GI50 (PC-3)?
A: 3.86 µM

Q: And the GI50 (BT-549)?
A: 4.58 µM

Q: And the GI50 (MDA-MB-31/ATCC)?
A: 3.09 µM

Q: What about the GI50 (MDA-MB-468) of the same compound?
A: 2.32 µM

Q: And the GI50 (T-47D)?
A: 4.03 µM

Q: And the melting point?
A: 160 to 162 °C
